Measurements published in patent US8785655B2, “Ionic liquid solvents” (Dublin City University, priority 2009, dated 2014).
Structures can show the parent of a compound that is named as a salt. Where two headings read alike, the source gives them in different places.

How the values were obtained:
[1] = tested on: Klebsiella pneumoniae D 11750/08; experiment: Screen against bacteria, MIC/IC80; type: cell-based; details: KP
[2] = tested on: Klebsiella pneumoniae J 14368/08 ESBL-positive; experiment: Screen against bacteria, MIC/IC80; type: cell-based; details: KP-E
[3] = tested on: Staphylococcus aureus H 5996/08 Methiciline-resistant; experiment: Screen against bacteria, MIC/IC80; type: cell-based; details: MRSA
[4] = tested on: Trichophyton mentagrophytes 445; experiment: In vitro antifungal activity, MIC by microdilution (NCCLS M27-A); details: TM
Method: (§2) In vitro antifungal activities of the compounds were evaluated on the collection of fungal strains deposited at the Department of Biological and Medical Sciences, Faculty of Pharmacy, Charles University, Czech Republic. All the isolates were maintained on Sabouraud dextrose agar prior to being tested.
(§3) Minimum inhibitory concentrations (MICs) were determined by the microdilution format of the NCCLS M27-A guidelines. […] RPMI 1640 (Sevapharma, Prague) medium supplemented with L-glutamine and buffered with 0.165 M morpholinepropanesulfonic acid to pH 7.0 was used as the test medium. The wells of the microdilution tray contained 100 μl of the RPMI 1640 medium with 2-fold serial dilutions of the compounds (1000 to 0.24 μmol/l for the new compounds) and 100 μl of inoculum suspension. Fungal inoculum in RPMI 1640 was prepared to give a final concentration of 5×103±0.2 cfu·ml-1. The trays were incubated at 35° C. and MICs were read visually for filamentous fungi and photometrically for yeasts as an optical density (OD) at 540 nm after 24 h and 48 h. The MICs were defined as 80% inhibition of the growth of control. MICs were determined twice and in duplicate. The deviations from the usually obtained were no higher than the nearest concentration value up and down the dilution scale.

[5] = tested on: Aspergillus fumigatus 231; experiment: as above; details: AF
[6] = tested on: Candida albicans ATCC 90028; experiment: as above
Candida krusei ATCC 6258 = experiment: as above
Method: as §2, §3

Candida tropicalis 156 = experiment: as above; details: CT
Candida glabrata 20/l = experiment: as above; details: CG
[7] = tested on: Staphylococcus aureus CCM 4516/08; experiment: Screen against bacteria, MIC/IC80; type: cell-based; details: SA
fungi and bacteria = type: cell-based
Method: All the 12 bromide salts and 12 octylsulfate CILs in the table below were screened against fungi and bacteria.
CILs with bromide as anion have been screened against the following Fungi and bacteria:
. […] MICs were determined twice and in duplicate.

Absidia corymbifera 272 = experiment: In vitro antifungal activity, MIC by microdilution (NCCLS M27-A); details: AC
Method: as §2, §3

[8] = tested on: Enterococcus sp. J 14365/08; experiment: Screen against bacteria, MIC/IC80; type: cell-based; details: EF
[9] = tested on: Candida lusitaniae 2446/l; experiment: In vitro antifungal activity, MIC by microdilution (NCCLS M27-A); details: CL
[10] = tested on: Candida albicans ATCC 44859; experiment: as above
[11] = tested on: Pseudomonas aeruginosa CCM 1961; experiment: Screen against bacteria, MIC/IC80; type: cell-based; details: PA
Escherichia coli CCM4517 = experiment: Screen against bacteria, MIC/IC80; type: cell-based; details: EC
Candida krusei E28 = experiment: In vitro antifungal activity, MIC by microdilution (NCCLS M27-A)
Method: All the isolates were maintained on Sabouraud dextrose agar prior to being tested.
as §3

[12] = tested on: Staphylococcus epidermidis H 6966/08; experiment: Screen against bacteria, MIC/IC80; type: cell-based; details: SE
[13] = tested on: Candida parapsilosis ATCC 22019; experiment: In vitro antifungal activity, MIC by microdilution (NCCLS M27-A); details: CP
[14] = tested on: Pseudomonas Putida (KT2440); experiment: Toxicity of pyridinium CILs, IC50 against bacteria strains; type: cell-based; details: read-out: IC50 values
Method: (§1) KG 2013 and KG 2015 screened against 5 bacteria strains: Pseudomonas Putida (CP1), Pseudomonas Putida (KT2440), Escherichia Coli, Bacillus Subtilis, and Pseudomonas Fluorescens. KG 1043 screened against 4 strains Pseudomonas Putida (CP1), Pseudomonas Putida (KT2440), Escherichia Coli, and Pseudomonas Fluorescens. All 3 pyridinium ionic liquids have low antimicrobial toxicity (IC50>1 mM).

Pseudomonas Putida (CP1) = experiment: as above; type: cell-based; details: read-out: IC50 values
Method: as §1

Escherichia Coli = experiment: as above; type: cell-based; details: read-out: IC50 values
Method: as §1

Pseudomonas Fluorescens = experiment: as above; type: cell-based; details: read-out: IC50 values
Method: as §1

Bacillus Subtilis = experiment: as above; type: cell-based; details: read-out: IC50 values
Method: as §1

Work on `CCCCCCCCOS(=O)(=O)[O-].CCCCCOC(=O)[C@@H](OC(=O)Cn1cc[n+](C)c1)c1ccccc1` [KG302, S-3-methyl-1-[1-(pentoxycarbonyl)-1-phenylmethoxycarbonylmethyl]imidazolium octyl sulphate] yielded an MIC/IC80 ([1]; 24 h) greater than 1000 µM, an MIC/IC80 ([1]; 48 h) greater than 1000 µM and an MIC/IC80 ([2]; 24 h) greater than 1000 µM. For the same molecule, the MIC/IC80 ([2]; 48 h) was greater than 1000 µM, the MIC/IC80 ([3]; 24 h) was greater than 1000 µM and the MIC/IC80 ([3]; 48 h) was greater than 1000 µM. For the same molecule, the MIC/IC80 ([4]; 72 h) was 250 µM, the MIC/IC80 ([4]; 120 h) was 500 µM and the MIC/IC80 ([5]; 24 h) was 1000 µM. For the same molecule, the MIC/IC80 ([5]; 48 h) was greater than 1000 µM, the MIC/IC80 ([6]; CA2, 24 h) was greater than 1000 µM and the MIC/IC80 ([6]; CA2, 48 h) was greater than 1000 µM. The MIC/IC80 (Candida krusei ATCC 6258; CK1, 24 h) was greater than 1000 µM, the MIC/IC80 (Candida krusei ATCC 6258; CK1, 48 h) was greater than 1000 µM and the MIC/IC80 (Candida tropicalis 156; 24 h) was greater than 1000 µM. The MIC/IC80 (Candida tropicalis 156; 48 h) was greater than 1000 µM, the MIC/IC80 (Candida glabrata 20/l; 24 h) was greater than 1000 µM and the MIC/IC80 (Candida glabrata 20/l; 48 h) was greater than 1000 µM. The MIC/IC80 ([7]; 24 h) was greater than 1000 µM, the MIC/IC80 ([7]; 48 h) was greater than 1000 µM and the “toxicity / inhibition of the growth of fungi and bacteria” value (fungi and bacteria) was “inhibit the growth of fungi and bacteria”. It also gave an MIC/IC80 (Absidia corymbifera 272; 24 h) of 1000 µM, an MIC/IC80 (Absidia corymbifera 272; 48 h) greater than 1000 µM and an MIC/IC80 ([8]; 24 h) greater than 1000 µM. The MIC/IC80 ([8]; 48 h) was greater than 1000 µM, the MIC/IC80 ([9]; 24 h) was greater than 1000 µM and the MIC/IC80 ([9]; 48 h) was greater than 1000 µM. For the same molecule, the MIC/IC80 ([10]; CA1, 24 h) was 1000 µM, the MIC/IC80 ([10]; CA1, 48 h) was 1000 µM and the MIC/IC80 ([11]; 24 h) was greater than 1000 µM. The MIC/IC80 ([11]; 48 h) was greater than 1000 µM, the MIC/IC80 (Escherichia coli CCM4517; 24 h) was greater than 1000 µM and the MIC/IC80 (Escherichia coli CCM4517; 48 h) was greater than 1000 µM. For the same molecule, the MIC/IC80 (Candida krusei E28; CK2, 24 h) was greater than 1000 µM, the MIC/IC80 (Candida krusei E28; CK2, 48 h) was greater than 1000 µM and the MIC/IC80 ([12]; 24 h) was 1000 µM. The MIC/IC80 ([12]; 48 h) was greater than 1000 µM, the MIC/IC80 ([13]; 24 h) was greater than 1000 µM and the MIC/IC80 ([13]; 48 h) was greater than 1000 µM.

`CCCCOC(=O)C(OC(=O)C[n+]1ccccc1)c1ccc2c(c1)OCO2` (centres unmarked) [KG 1043, RS-[1-(butoxycarbonyl)-1-(3,4-methylenedioxyphenyl)methoxycarbonylmethyl]pyridinium bromide] gave an IC50 ([14]; P. Putida (KT2440)) greater than 1000 µM, an IC50 (Pseudomonas Putida (CP1); P. Putida (CP1)) greater than 1000 µM and an IC50 (Escherichia Coli; E. Coli) greater than 1000 µM. It also gave an IC50 (Pseudomonas Fluorescens; P. Fluorescens) greater than 1000 µM.

Work on `COC(=O)C(c1ccc2c(c1)OCO2)[n+]1ccccc1` (centres unmarked) [KG 2015, RS-2-(3,4-methylendioxyphenyl)-2-(pyridinium) methyl acetate, bromide salt] yielded an IC50 ([14]; P. Putida (KT2440)) greater than 1000 µM, an IC50 (Pseudomonas Putida (CP1); P. Putida (CP1)) greater than 1000 µM and an IC50 (Escherichia Coli; E. Coli) greater than 1000 µM. It also gave an IC50 (Bacillus Subtilis; B. Subtilis) greater than 1000 µM and an IC50 (Pseudomonas Fluorescens; P. Fluorescens) greater than 1000 µM.

`CCCCCCCCOS(=O)(=O)[O-].CCCCCOC(=O)C(OC(=O)Cn1cc[n+](C)c1)c1ccccc1` (centres unmarked) [KG304, RS-3-methyl-1-[1-(pentoxycarbonyl)-1-phenylmethoxycarbonylmethyl]imidazolium octyl sulphate] gave an MIC/IC80 ([1]; 24 h) greater than 1000 µM, an MIC/IC80 ([1]; 48 h) greater than 1000 µM and an MIC/IC80 ([2]; 24 h) greater than 1000 µM. The MIC/IC80 ([2]; 48 h) was greater than 1000 µM, the MIC/IC80 ([3]; 24 h) was greater than 1000 µM and the MIC/IC80 ([3]; 48 h) was greater than 1000 µM. For the same molecule, the MIC/IC80 ([4]; 72 h) was 250 µM, the MIC/IC80 ([4]; 120 h) was 500 µM and the MIC/IC80 ([5]; 24 h) was 500 µM. For the same molecule, the MIC/IC80 ([5]; 48 h) was greater than 1000 µM, the MIC/IC80 ([6]; CA2, 24 h) was greater than 1000 µM and the MIC/IC80 ([6]; CA2, 48 h) was greater than 1000 µM. For the same molecule, the MIC/IC80 (Candida krusei ATCC 6258; CK1, 24 h) was 1000 µM, the MIC/IC80 (Candida krusei ATCC 6258; CK1, 48 h) was greater than 1000 µM and the MIC/IC80 (Candida tropicalis 156; 24 h) was greater than 1000 µM. It also gave an MIC/IC80 (Candida tropicalis 156; 48 h) greater than 1000 µM, an MIC/IC80 (Candida glabrata 20/l; 24 h) greater than 1000 µM and an MIC/IC80 (Candida glabrata 20/l; 48 h) greater than 1000 µM. For the same molecule, the MIC/IC80 ([7]; 24 h) was 1000 µM, the MIC/IC80 ([7]; 48 h) was 1000 µM and the “toxicity / inhibition of the growth of fungi and bacteria” value (fungi and bacteria) was “inhibit the growth of fungi and bacteria”. The MIC/IC80 (Absidia corymbifera 272; 24 h) was 1000 µM, the MIC/IC80 (Absidia corymbifera 272; 48 h) was 1000 µM and the MIC/IC80 ([8]; 24 h) was greater than 1000 µM. The MIC/IC80 ([8]; 48 h) was greater than 1000 µM, the MIC/IC80 ([9]; 24 h) was greater than 1000 µM and the MIC/IC80 ([9]; 48 h) was greater than 1000 µM. The MIC/IC80 ([10]; CA1, 24 h) was 1000 µM, the MIC/IC80 ([10]; CA1, 48 h) was 1000 µM and the MIC/IC80 ([11]; 24 h) was greater than 1000 µM. It also gave an MIC/IC80 ([11]; 48 h) greater than 1000 µM, an MIC/IC80 (Escherichia coli CCM4517; 24 h) greater than 1000 µM and an MIC/IC80 (Escherichia coli CCM4517; 48 h) greater than 1000 µM. The MIC/IC80 (Candida krusei E28; CK2, 24 h) was greater than 1000 µM, the MIC/IC80 (Candida krusei E28; CK2, 48 h) was greater than 1000 µM and the MIC/IC80 ([12]; 24 h) was 1000 µM. For the same molecule, the MIC/IC80 ([12]; 48 h) was greater than 1000 µM, the MIC/IC80 ([13]; 24 h) was greater than 1000 µM and the MIC/IC80 ([13]; 48 h) was greater than 1000 µM.

`COC(=O)C(c1ccc(OC)c(OC)c1)[n+]1ccccc1` (centres unmarked) [KG 2013, RS-2-(3,4-dimethoxyphenyl)-2-(pyridinium) methyl acetate, chloride salt] gave an IC50 ([14]; Pseudomonas putida) greater than 1000 µM, an IC50 (Pseudomonas Putida (CP1); Pseudomonas putida) greater than 1000 µM and an IC50 (Escherichia Coli; Escherichia coli) greater than 1000 µM. The IC50 (Bacillus Subtilis; Bacillus subtilis) was greater than 1000 µM and the IC50 (Pseudomonas Fluorescens; Pseudomonas fluorescens) was greater than 1000 µM.
